Structures are written as SMILES. ± gives the expanded uncertainty stated by the source.

For the data set the following is noted: Crystal; visual observation.

`c1ccc2c(c1)Nc1ccccc1S2` [10H-phenothiazine]: the Normal melting temperature worked out at 183 ± 1 °C.

(Values after the NIST ThermoML archive (doi:10.1021/je2001649).)
